Test results published in US12691070B2, “Cationic lipids and preparation method thereof” (RiboX Therapeutics HK Limited, priority 2023, dated 2026).

How the values were obtained:
[1] = LNP zeta potential (Zetasizer); assay type: physicochemical; settings: LNP with cirRNA (SEQ ID NO: 1)
Outline: (§1)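 Dynamic light scattering and zeta potential measurements were run on PBS-dialyzed LNPs, which had been formed by microfluidic mixing at 12 ml/min with final lipid at 1.5 mM to 6 mM. RNA content and percent encapsulation were determined by Ribogreen with and without Triton X-100.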

[2] = system: RAW 264.7 cells; experiment: In vitro toxicity (CellTiter-Glo cell viability), RAW 264.7; assay type: cell-based; settings: cirRNA (SEQ ID NO: 1) LNPs; RAW 264.7 cells;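 also: percent of untreated cells luminescence signal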
Outline: (§2)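 Toxicity of RNA-LNPs (1 μg/mL) is reported as cell viability, calculated from CellTiter-Glo luminescence measured at 72 hours after transfection.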

[3] = LNP size and polydispersity index (PDI) by dynamic light scattering; assay type: physicochemical; settings: LNP with cirRNA (SEQ ID NO: 1); for Size: in nm (unit assumed)
Outline: as §1

[4] = system: Hep G2 cells; experiment: In vitro toxicity (CellTiter-Glo cell viability), Hep G2; assay type: cell-based; settings: cirRNA (SEQ ID NO: 1) LNPs; Hep G2 cells;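 also: percent of untreated cells luminescence signal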
Outline: as §2

[5] = RNA encapsulation efficacy by Quant-IT Ribogreen kit; assay type: physicochemical; settings: LNP with cirRNA (SEQ ID NO: 1)
Outline: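 Encapsulation efficacy came from Ribogreen fluorescence of LNPs compared with Triton X-100-lysed LNPs. The particles carried luciferase-encoding circular or linear RNA at an ionizable lipid:ribonucleotide ratio of 15 or 6.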

[6] = system: BALB/C mice; experiment: In vivo expression, whole-body luminescence (IVIS); settings: cirRNA (SEQ ID NO: 1) LNPs, BALB/C mice
Method: 6-8 week old, female BALB/C mice were injected with 0.05 mg*kg-1 of RNA-LNPs encoding for firefly-luciferase by intravenous injection. At 6 hours post injection, animals were intraperitoneally injected with 15 mg/ml of Luciferin substrate and whole-body luminescence was determined by a bioluminescent in vivo imaging system (IVIS).

[7] = system: RAW 264.7 cells; experiment: In vitro expression of firefly-luciferase, RAW 264.7; assay type: cell-based; settings: cirRNA (SEQ ID NO: 1) LNPs; firefly-luciferase luminescence; RAW 264.7 cells
Outline: (§3)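 Transfection used 100 ng/mL luciferase-encoding RNA-LNPs; activity in lysates was determined at 72 h.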

[8] = system: Hep G2 cells; experiment: In vitro expression of firefly-luciferase, Hep G2; assay type: cell-based; settings: cirRNA (SEQ ID NO: 1) LNPs; firefly-luciferase luminescence; Hep G2 cells
Outline: as §3

| Compound | Zeta (mV) [1] | In vitro Viability RAW [2] | PDI [3] | Size [3] | In vitro Viability HepG2 [4] | Encapsulation Efficiency % [5] | In vivo Expression (Whole Body) [6] | In vitro Expression RAW [7] | In vitro Expression HepG2 [8] |
| --- | --- | --- | --- | --- | --- | --- | --- | --- | --- |
| CCCCCCCC/C=C\CCCCCCCCN(CCCCCCCCOC(=O)C(CCCCCC)CCCCCCCC)CCOC(=O)NCc1ncc[nH]1 (stereo not drawn) [Lipid 212] | −3.175 mV | 82% | 0.1853 | 65.77 | 99% | 93% | 4.68E+06 | 1.44E+05 | 6.37E+04 |
| CCCCCCCC/C=C\CCCCCCCCN(CCCCCCCCOC(=O)C(CCCCCC)CCCCCCCC)CCOC(=O)NCCCN(CC)CC (stereo not drawn) [Lipid 213] | 13.22 mV | 90% | 0.2952 | 114.2 | 74% | 94% | 2.11E+06 | 2.06E+04 | 6.40E+06 |
| CCCCCCCC/C=C\CCCCCCCCN(CCCCCCCCOC(=O)C(CCCCCC)CCCCCCCC)CCOC(=O)NCCN1CCN(C)CC1 (stereo not drawn) [Lipid 214] | 5.906 mV | 87% | 0.304 | 76.43 | 83% | 96% | 1.18E+06 | 1.20E+05 | 3.88E+06 |
| CCCCCCCC/C=C\CCCCCCCCN(CCCCCCCCOC(=O)C(CCCCCC)CCCCCCCC)CCOC(=O)NCCN1CCOCC1 (stereo not drawn) [Lipid 215] | −3.755 mV | 86% | 0.05226 | 62.22 | 85% | 96% | 1.61E+07 | 7.31E+03 | 5.62E+04 |
| CCCCCCCC/C=C\CCCCCCCCN(CCCCCCCCOC(=O)C(CCCCCC)CCCCCCCC)CCOC(=O)NCCCN(C)C (stereo not drawn) [Lipid 216] | 11.61 mV | 75% | 0.4093 | 75.92 | 76% | 96% | 1.34E+06 | 3.31E+05 | 1.59E+07 |
| CCCCCCCC/C=C\CCCCCCCCN(CCCCCCCCOC(=O)C(CCCCCC)CCCCCCCC)CCOC(=O)NCCCn1ccnc1 (stereo not drawn) [Lipid 217] | 1.061 mV | 90% | 0.1439 | 60.05 | 82% | 94% | 7.35E+06 | 8.05E+03 | 2.45E+04 |
| CCCCCCCC/C=C\CCCCCCCCN(CCCCCCCCOC(=O)C(CCCCCC)CCCCCCCC)CCOC(=O)NCCN1CCCC1 (stereo not drawn) [Lipid 218] | 5.94 mV | 62% | 0.3124 | 96.36 | 71% | 96% | 7.53E+07 | 9.16E+04 | 5.25E+06 |
